Molecular target: T1, rat mGlu 5a receptor (Rattus norvegicus, UniProt P31424)
T1 construct: expressed in transfected cells; host or cells: EBNA cells (transient transfection)
Assay: [Ca2+]i FLIPR antagonist assay on mGlu 5a transfected EBNA cells against 10 μM glutamate
Format: cell-based
Settings: rat mGlu 5a transiently transfected EBNA cells; against 10 μM glutamate as agonist
Procedure: The pharmacological activity of the compounds of the present invention was tested using the following methods: cDNA encoding rat mGlu 5a receptor was transiently transfected into EBNA cells using a procedure described by E.-J. Schlaeger and K. Christensen (Transient gene expression in mammalian cells grown in serum-free suspension culture, Cytotechnology 1999, 30, 71-83). [Ca^2+]i measurements were performed on mGlu 5a transfected EBNA cells after incubation of the cells with Fluo 3-AM (obtainable by FLUKA, 0.5 μM final concentration) for 1 hour at 37° C. followed by 4 washes with assay buffer (DMEM supplemented with Hank's salt and 20 mM HEPES. [Ca^2+]i measurements were done using a fluorometric imaging plate reader (FLIPR, Molecular Devices Corporation, La Jolla, Calif., USA). When compounds were evaluated as antagonists they were tested against 10 μM glutamate as agonist.
The inhibition (antagonist) curves were fitted with a four parameter logistic equation giving IC50, and Hill coefficient using the iterative non linear curve fitting software Origin (Microcal Software Inc., Northampton, Mass., USA).

T1 sequence (P31424 21-1171 isoform P31424-2 limits assumed): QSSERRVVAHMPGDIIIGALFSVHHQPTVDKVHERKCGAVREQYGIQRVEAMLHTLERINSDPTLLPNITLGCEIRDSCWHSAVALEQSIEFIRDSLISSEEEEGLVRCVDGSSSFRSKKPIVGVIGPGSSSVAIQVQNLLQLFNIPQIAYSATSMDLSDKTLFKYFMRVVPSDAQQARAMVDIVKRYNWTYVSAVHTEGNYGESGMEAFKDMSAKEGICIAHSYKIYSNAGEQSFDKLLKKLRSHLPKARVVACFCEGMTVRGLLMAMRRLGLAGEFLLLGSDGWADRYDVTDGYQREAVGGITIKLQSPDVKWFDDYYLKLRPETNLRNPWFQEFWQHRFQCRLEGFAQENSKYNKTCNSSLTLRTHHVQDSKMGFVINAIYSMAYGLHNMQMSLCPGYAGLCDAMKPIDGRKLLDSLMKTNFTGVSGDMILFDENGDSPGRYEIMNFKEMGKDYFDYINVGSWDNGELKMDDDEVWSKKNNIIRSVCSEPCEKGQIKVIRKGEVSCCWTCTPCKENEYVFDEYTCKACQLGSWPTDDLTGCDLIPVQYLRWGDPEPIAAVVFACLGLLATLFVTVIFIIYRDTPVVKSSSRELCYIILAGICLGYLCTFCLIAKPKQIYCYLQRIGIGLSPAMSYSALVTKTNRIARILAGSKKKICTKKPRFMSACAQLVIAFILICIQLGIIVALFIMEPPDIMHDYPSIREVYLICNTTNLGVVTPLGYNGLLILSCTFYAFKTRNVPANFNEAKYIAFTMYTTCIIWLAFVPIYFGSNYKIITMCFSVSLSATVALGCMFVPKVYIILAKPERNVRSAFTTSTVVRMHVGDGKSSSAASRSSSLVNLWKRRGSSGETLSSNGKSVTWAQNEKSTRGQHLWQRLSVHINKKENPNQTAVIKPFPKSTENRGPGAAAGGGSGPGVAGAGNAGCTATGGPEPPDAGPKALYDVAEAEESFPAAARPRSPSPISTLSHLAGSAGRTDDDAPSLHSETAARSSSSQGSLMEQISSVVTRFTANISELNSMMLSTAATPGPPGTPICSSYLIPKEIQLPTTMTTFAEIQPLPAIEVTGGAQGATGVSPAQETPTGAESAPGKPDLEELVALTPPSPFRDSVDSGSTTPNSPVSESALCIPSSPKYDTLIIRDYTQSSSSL

SMILES	IC50 [nM]
Cc1ccc(-c2cn3ccc(Cl)cc3n2)cc1C [Example 1, 7-Chloro-2-(3,4-dimethyl-phenyl)-imidazo[1,2-a]pyridine]	100
COc1ccc(-c2cn3ccc(C)cc3n2)cc1OC [Example 2, 2-(3,4-Dimethoxy-phenyl)-7-methyl-imidazo[1,2-a]pyridine]	1880
COc1ccc(-c2cn3ccccc3n2)cc1OC [Example 3, 2-(3,4-Dimethoxy-phenyl)-imidazo[1,2-a]pyridine]	6800
COc1ccn2cc(-c3ccc(C)c(C)c3)nc2c1 [Example 4, 2-(3,4-Dimethyl-phenyl)-7-methoxy-imidazo[1,2-a]pyridine]	140
COc1ccn2cc(-c3ccc(OC)c(OC)c3)nc2c1 [Example 5, 2-(3,4-Dimethoxy-phenyl)-7-methoxy-imidazo[1,2-a]pyridine]	3300
Cc1ccc(-c2cn3ccccc3n2)cc1C.Cl [Example 6, 2-(3,4-Dimethyl-phenyl)-imidazo[1,2-a]pyridine hydrochloride]	37
Cc1ccn2cc(-c3ccc(C)c(C)c3)nc2c1 [Example 7, 2-(3,4-Dimethyl-phenyl)-7-methyl-imidazo[1,2-a]pyridine]	280
Fc1ccc(-c2cn3ccccc3n2)cc1Br [Example 8, 2-(3-Bromo-4-fluoro-phenyl)-imidazo[1,2-a]pyridine]	690
COc1cc(-c2cn3ccccc3n2)ccc1OCc1ccccc1 [Example 9, 2-(4-Benzyloxy-3-methoxy-phenyl)-imidazo[1,2-a]pyridine]	830
c1ccn2cc(-c3ccc4c(c3)CCC4)nc2c1 [Example 10, 2-Indan-5-yl-imidazo[1,2-a]pyridine]	930
Brc1cccc(-c2cn3ccccc3n2)c1 [Example 11, 2-(3-Bromo-phenyl)-imidazo[1,2-a]pyridine]	950
Ic1cccc(-c2cn3ccccc3n2)c1 [Example 12, 2-(3-Iodo-phenyl)-imidazo[1,2-a]pyridine]	970
Clc1cccc(-c2cn3ccccc3n2)c1 [Example 13, 2-(3-Chloro-phenyl)-imidazo[1,2-a]pyridine]	1230
Cc1cccc(-c2cn3ccccc3n2)c1 [Example 14, 2-(3-Methyl-phenyl)-imidazo[1,2-a]pyridine]	1550
c1ccc2oc(-c3cn4ccccc4n3)cc2c1 [Example 15, 2-Benzofuran-2-yl-imidazo[1,2-a]pyridine]	1660
c1ccc2c(-c3cn4ccccc4n3)csc2c1 [Example 16, 2-Benzo[b]thiophen-3-yl-imidazo[1,2-a]pyridine]	2760
FC(F)(F)c1cccc(-c2cn3ccccc3n2)c1 [Example 17, 2-(3-Trifluoromethyl-phenyl)-imidazo[1,2-a]pyridine]	2790
c1ccn2cc(-c3ccc4c(c3)CCO4)nc2c1 [Example 18, 2-(2,3-Dihydro-benzofuran-5-yl)-imidazo[1,2-a]pyridine]	2860
Fc1cccc(-c2cn3ccccc3n2)c1 [Example 19, 2-(3-Fluoro-phenyl)-imidazo[1,2-a]pyridine]	3410
CCc1ccn2cc(-c3ccc(C)c(C)c3)nc2c1 [Example 20, 2-(3,4-Dimethyl-phenyl)-7-ethyl-imidazo[1,2-a]pyridine]	3640
Cc1ccc(-c2cn3ccccc3n2)s1 [Example 21, 2-(5-Methyl-thiophen-2-yl)-imidazo[1,2-a]pyridine]	6130
Cc1ccn2cc(-c3ccccc3)nc2c1 [Example 22, 7-Methyl-2-phenyl-imidazo[1,2-a]pyridine]	7500
Cc1ccc(-c2cn3ccccc3n2)cc1 [Example 23, 2-(4-Methyl-phenyl)-imidazo[1,2-a]pyridine]	8770
Cc1cc(-c2cn3ccccc3n2)c(C)s1 [Example 24, 2-(2,5-Dimethyl-thiophen-3-yl)-imidazo[1,2-a]pyridine]	580
COc1cccc(-c2cn3ccccc3n2)c1 [Example 25, 2-(3-Methoxy-phenyl)-imidazo[1,2-a]pyridine]	1650
COc1ccc(-c2cn3cc(C)ccc3n2)cc1OC [Example 26, 2-(3,4-Dimethoxy-phenyl)-6-methyl-imidazo[1,2-a]pyridine]	8300
c1ccn2cc(-c3ccc4c(c3)OCCO4)nc2c1 [Example 27, 2-(2,3-Dihydro-benzo [1,4]dioxin-6-yl)-imidazo[1,2-a]pyridine]	990
Cc1ccc(-c2cn3cc(C)ccc3n2)cc1 [Example 28, 6-Methyl-2-(4-methyl-phenyl)-imidazo[1,2-a]pyridine]	10000
O=[N+]([O-])c1cccc(-c2cn3ccccc3n2)c1 [Example 29, 2-(3-Nitro-phenyl)-imidazo[1,2-a]pyridine]	10000

Same assay, conditions: statement in words, compared with compounds of formula I

SMILES	affinity toward the mGluR5 receptor
Cc1ccc(-c2nc3ccc(C)cn3c2CC(=O)N(C)C)cc1 [N,N,6-trimethyl-2-(4-methylphenyl)-imidazo[1,2-a]pyridine-3-acetamide, reference compound]	does not possess the affinity toward the mGluR5 receptor

Tested on: central benzodiazepine receptors
Assay: not given
Settings: from cited reference (Eur. J. Pharmacol. 1986, 130(3), 257-263); cited from earlier work

SMILES	agonist properties at central benzodiazepine receptors
Cc1ccc(-c2nc3ccc(C)cn3c2CC(=O)N(C)C)cc1 [N,N,6-trimethyl-2-(4-methylphenyl)-imidazo[1,2-a]pyridine-3-acetamide, reference compound]	possesses agonist properties at central benzodiazepine receptors

Tested on: not given
Assay: not given
Settings: not given

SMILES	melting point [°C]
Cc1ccc(-c2cn3ccc(Cl)cc3n2)cc1C [Example 1, 7-Chloro-2-(3,4-dimethyl-phenyl)-imidazo[1,2-a]pyridine]	144
COc1ccc(-c2cn3ccc(C)cc3n2)cc1OC [Example 2, 2-(3,4-Dimethoxy-phenyl)-7-methyl-imidazo[1,2-a]pyridine]	163
COc1ccn2cc(-c3ccc(C)c(C)c3)nc2c1 [Example 4, 2-(3,4-Dimethyl-phenyl)-7-methoxy-imidazo[1,2-a]pyridine]	175
COc1ccn2cc(-c3ccc(OC)c(OC)c3)nc2c1 [Example 5, 2-(3,4-Dimethoxy-phenyl)-7-methoxy-imidazo[1,2-a]pyridine]	142

Molecular target: central benzodiazepine receptors
Assay: Inhibition of binding of tritiated flumazenil to benzodiazepine receptors in rat cortex
Settings: [3H]flumazenil, Cheng & Prusoff
Procedure: The affinity of compounds of formula I to the central benzodiazepine receptors in vitro was also tested using standard methods as for example described in Nature 1981, 294, 763-765 and J. Neurochemistry 1981, 37, 714-722. According to these methods, the inhibition of the binding of tritiated flumazenil to the specific benzodiazepine receptors in the cortex of rats by the respective test substances is determined and the inhibition dissociation constant (Ki) of each test compound is determined according to the method of Cheng & Prusoff (1973).

SMILES	pKi (negative logarithm of the Ki)
Cc1ccc(-c2cn3ccccc3n2)cc1C.Cl [Example 6, 2-(3,4-Dimethyl-phenyl)-imidazo[1,2-a]pyridine hydrochloride]	5.2
